Reference: patent publication US8722849B2, “Polypeptides” (Novo Nordisk A/S, priority 2011, dated 2014)
≈ marks a conversion by molar mass, not a printed value. Read-outs that look alike come from different tables or passages of the source. Starred links: 1 amine or outer side, 2 acyl side, 3 side chain; linkers in the order of their positions; H or OH if unused. Positions of bridges follow the written chain, without caps; N, C: chain ends. Residues, ends and D or L forms follow the SMILES beside them. *: point of attachment. C20 diacid = O=C(O)CCCCCCCCCCCCCCCCCCC(=O)*; γGlu = O=C(O)[C@H](CCC(=O)[*:2])N[*:1]

Assays:
[1] = biological target: T1, human calcitonin receptor (Homo sapiens, UniProt P30988); experiment: Assay (II)a functional CRE-luciferase assay, human calcitonin receptor; type: cell-based; details: Table 7; human calcitonin (CTa) receptor
T1 construct: expressed in transfected cells; host or cells: BHK570
T1 sequence (P30988 25-474): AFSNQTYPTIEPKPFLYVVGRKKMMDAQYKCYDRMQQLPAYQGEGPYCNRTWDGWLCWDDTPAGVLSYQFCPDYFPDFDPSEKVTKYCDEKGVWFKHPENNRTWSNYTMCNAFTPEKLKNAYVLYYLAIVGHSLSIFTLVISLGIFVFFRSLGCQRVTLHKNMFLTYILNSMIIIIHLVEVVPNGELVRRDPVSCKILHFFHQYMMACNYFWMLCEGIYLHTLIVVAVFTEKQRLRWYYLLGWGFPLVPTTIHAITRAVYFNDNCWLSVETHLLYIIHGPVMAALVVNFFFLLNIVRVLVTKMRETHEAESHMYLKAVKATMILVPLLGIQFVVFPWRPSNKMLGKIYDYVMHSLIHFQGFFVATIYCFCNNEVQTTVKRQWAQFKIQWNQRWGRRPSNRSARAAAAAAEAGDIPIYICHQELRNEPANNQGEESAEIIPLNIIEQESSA

[2] = Assay (IV) determination of solubility; type: physicochemical
Method in brief: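 Solubility is measured across pH 3.0–8.0 by mixing a ~500 nmol/ml aqueous polypeptide stock 1:1 with 100 mM glycylglycine or bistrispropane buffers. Samples stand 18 hours at room temperature, then are centrifuged and the soluble concentration is determined by HPLC.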

[3] = biological target: T2, human amylin receptor (amylin 3(a) receptor: human calcitonin receptor + RAMP-3) (Homo sapiens, UniProt O60896+P30988); experiment: Assay (II)a functional CRE-luciferase assay, human amylin receptor; type: cell-based
T2 construct: expressed in transfected cells; host or cells: BHK570
T2 sequence (P30988 25-474): T1 sequence (P30988 25-474)
T2 sequence (O60896 24-148 partner): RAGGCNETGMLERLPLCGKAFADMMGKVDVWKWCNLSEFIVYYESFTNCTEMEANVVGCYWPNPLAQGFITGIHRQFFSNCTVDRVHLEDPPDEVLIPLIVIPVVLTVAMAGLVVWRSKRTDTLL

[4] = bistrispropane buffer, pH 7.5, pH 7.5, read-out: Solubility pH 7.5
[5] = bistrispropane buffer, pH 8, pH 8.0, read-out: Solubility pH 8.0
[6] = glycylglycine buffer, pH 3, pH 3.0, read-out: Solubility pH 3.0
[7] = glycylglycine buffer, pH 4, pH 4.0, 18 hours at room temperature, Table 2, read-out: Solubility pH 4.0
[8] = glycylglycine buffer, pH 4, pH 4.0, read-out: Solubility pH 4.0
[9] = Table 2, BHK amylin 3(a)-receptor/CRE-luc cells
[10] = bistrispropane buffer, pH 6, pH 6.0, read-out: Solubility pH 6.0
[11] = bistrispropane buffer, pH 6.5, pH 6.5, read-out: Solubility pH 6.5
[12] = bistrispropane buffer, pH 7, pH 7.0, read-out: Solubility pH 7.0
[13] = glycylglycine buffer, pH 5, pH 5.0, read-out: Solubility pH 5.0
[14] = bistrispropane buffer, pH 7, pH 7.0, 18 hours at room temperature, Table 3, read-out: Solubility pH 7.0

| SMILES | EC50 [1] [nM] | solubility at 18 h [2, 4] [µM] | solubility at 18 h [2, 5] [µM] | solubility at 18 h [2, 6] [µM] | solubility at 18 h [2, 7] [µM] | solubility at 18 h [2, 8] [µM] | solubility at 18 h ([2]; pH 5.0, read-out: Solubility pH 5.0) [µM] | solubility at 18 h ([2]; pH 6.0, read-out: Solubility pH 6.0) [µM] | solubility at 18 h ([2]; pH 6.5, read-out: Solubility pH 6.5) [µM] | solubility at 18 h ([2]; pH 7.0, read-out: Solubility pH 7.0) [µM] | EC50 [3, 9] [nM] | solubility at 18 h [2, 10] [µM] | solubility at 18 h [2, 11] [µM] | solubility at 18 h [2, 12] [µM] | solubility at 18 h [2, 13] [µM] | EC50 ([3]; Table 6, human amylin receptor) [nM] | solubility at 18 h [2, 14] [µM] |
| --- | --- | --- | --- | --- | --- | --- | --- | --- | --- | --- | --- | --- | --- | --- | --- | --- | --- |
| CC[C@H](C)[C@H](NC(=O)[C@@H]1CCCN1C(=O)CNC(=O)[C@H](Cc1ccccc1)NC(=O)[C@H](CC(N)=O)NC(=O)[C@H](CC(N)=O)NC(=O)[C@H](CO)NC(=O)[C@H](CO)NC(=O)[C@H](CCCNC(=N)N)NC(=O)[C@@H](NC(=O)[C@H](CC(C)C)NC(=O)[C@H](Cc1ccccc1)NC(=O)[C@H](CCC(=O)O)NC(=O)[C@H](C)NC(=O)[C@H](CC(C)C)NC(=O)[C@H](CCCNC(=N)N)NC(=O)[C@H](CCC(N)=O)NC(=O)[C@@H](NC(=O)[C@H](C)NC(=O)[C@@H]1CSSC[C@H](NC(=O)[C@H](Cc2cnc[nH]2)NC(=O)CC[C@H](NC(=O)CCCCCCCCCCCCCCCCCCC(=O)O)C(=O)O)C(=O)N[C@@H](CC(N)=O)C(=O)N[C@@H]([C@@H](C)O)C(=O)N[C@@H](C)C(=O)N[C@@H]([C@@H](C)O)C(=O)N1)[C@@H](C)O)C(C)C)C(=O)N[C@@H](CC(C)C)C(=O)N1CCC[C@H]1C(=O)N1CCC[C@H]1C(=O)N[C@H](C(=O)N[C@@H](CC(N)=O)C(=O)N[C@H](C(=O)NCC(=O)N[C@@H](CO)C(=O)N[C@@H](CC(N)=O)C(=O)N[C@H](C(=O)N[C@@H](Cc1ccc(O)cc1)C(N)=O)[C@@H](C)O)C(C)C)[C@@H](C)O [Example 15, N-alpha-[(S)-4-Carboxy-4-(19-carboxynonadecanoylamino)butyryl]-[His1,Glu14,Arg18]-pramlintide] ({C20 diacid-γGlu}-HCNTATCATQRLAEFLVRSSNNFGPILPPTNVGSNTY-NH2; disulfide 2-7) | 0.125 | 56 (≈ 249 µg/mL) | 134 (≈ 596 µg/mL) | > 200 | > 200 | > 200 | 10 (≈ 44.5 µg/mL) | 1 (≈ 4.45 µg/mL) | 1 (≈ 4.45 µg/mL) | 10 (≈ 44.5 µg/mL) | 0.083 |  |  |  |  |  |  |
| CC(C)C[C@H](NC(=O)[C@H](CCCNC(=N)N)NC(=O)[C@H](CCC(N)=O)NC(=O)[C@@H](NC(=O)[C@H](C)NC(=O)[C@@H]1CSSC[C@H](NC(=O)[C@H](Cc2c[nH]cn2)NC(=O)CC[C@H](NC(=O)CCCCCCCCCCCCCCCCCCC(=O)O)C(=O)O)C(=O)N[C@@H](CC(N)=O)C(=O)N[C@@H]([C@@H](C)O)C(=O)N[C@@H](C)C(=O)N[C@@H]([C@@H](C)O)C(=O)N1)[C@@H](C)O)C(=O)N[C@@H](C)C(=O)N[C@@H](CCC(=O)O)C(=O)N[C@@H](Cc1ccccc1)C(=O)N[C@@H](CC(C)C)C(=O)N[C@@H](Cc1c[nH]cn1)C(=O)N[C@@H](CCCNC(=N)N)C(=O)N[C@@H](CO)C(=O)N[C@@H](CO)C(=O)N[C@@H](CC(N)=O)C(=O)N[C@@H](CCC(=O)O)C(=O)N[C@@H](Cc1ccccc1)C(=O)NCC(=O)N[C@@H](C)C(=O)N[C@@H](CCCNC(=N)N)C(=O)N[C@@H](CC(C)C)C(=O)N[C@@H](CO)C(=O)N[C@@H](CO)C(=O)N[C@H](C(=O)N[C@@H](CC(N)=O)C(=O)N[C@H](C(=O)NCC(=O)N[C@@H](CO)C(=O)N[C@@H](CC(N)=O)C(=O)N[C@H](C(=O)N[C@@H](Cc1ccc(O)cc1)C(N)=O)[C@@H](C)O)C(C)C)[C@@H](C)O [Example 8, N-alpha-[(S)-4-Carboxy-4-(19-carboxynonadecanoylamino)butyryl]-[His1,Glu14,His17,Arg18,Glu22,Ala25,Arg26,Ser28,Ser29]-pramlintide] ({C20 diacid-γGlu}-HCNTATCATQRLAEFLHRSSNEFGARLSSTNVGSNTY-NH2; disulfide 2-7 (inferred)) | 0.279 | 1 (≈ 4.5 µg/mL) | 3 (≈ 13.5 µg/mL) | 178 (≈ 800 µg/mL) |  | 93 (≈ 418 µg/mL) |  |  |  |  |  | 1 (≈ 4.5 µg/mL) | 1 (≈ 4.5 µg/mL) | 1 (≈ 4.5 µg/mL) | 2 (≈ 8.99 µg/mL) | 0.127 |  |
| CC[C@H](C)[C@H](NC(=O)[C@@H]1CCCN1C(=O)CNC(=O)[C@H](Cc1ccccc1)NC(=O)[C@H](CC(N)=O)NC(=O)[C@H](CC(N)=O)NC(=O)[C@H](CO)NC(=O)[C@H](CO)NC(=O)[C@H](Cc1c[nH]cn1)NC(=O)[C@H](CCCNC(=N)N)NC(=O)[C@H](CC(C)C)NC(=O)[C@H](Cc1ccccc1)NC(=O)[C@H](CCC(=O)O)NC(=O)[C@H](C)NC(=O)[C@H](CC(C)C)NC(=O)[C@H](CCCNC(=N)N)NC(=O)[C@H](CCC(N)=O)NC(=O)[C@@H](NC(=O)[C@H](C)NC(=O)[C@@H]1CSSC[C@H](NC(=O)[C@H](CCCNC(=N)N)NC(=O)[C@H](CCC(=O)O)NC(=O)[C@H](CCC(=O)O)NC(=O)CC[C@H](NC(=O)CCCCCCCCCCCCCCCCCCC(=O)O)C(=O)O)C(=O)N[C@@H](CC(N)=O)C(=O)N[C@@H]([C@@H](C)O)C(=O)N[C@@H](C)C(=O)N[C@@H]([C@@H](C)O)C(=O)N1)[C@@H](C)O)C(=O)N[C@@H](CC(C)C)C(=O)N1CCC[C@H]1C(=O)N1CCC[C@H]1C(=O)N[C@H](C(=O)N[C@@H](CC(N)=O)C(=O)N[C@H](C(=O)NCC(=O)N[C@@H](CO)C(=O)N[C@@H](CC(N)=O)C(=O)N[C@H](C(=O)N1CCC[C@H]1C(N)=O)[C@@H](C)O)C(C)C)[C@@H](C)O [Example 155, N-alpha-[(S)-4-Carboxy-4-(19-carboxynonadecanoylamino)butyryl]-Glu-Glu-[Arg1,Glu14,Arg17,Pro37]-pramlintide] ({C20 diacid-γGlu}-EERCNTATCATQRLAEFLRHSSNNFGPILPPTNVGSNTP-NH2; disulfide 4-9 (inferred); C-terminus assumed) | 0.526 | > 200 | > 200 | > 200 | > 200 | > 200 |  |  |  |  | 0.313 | > 200 | > 200 | > 200 | > 200 |  | > 200 |
| CC[C@H](C)[C@H](NC(=O)[C@@H]1CCCN1C(=O)CNC(=O)[C@H](Cc1ccccc1)NC(=O)[C@H](CC(N)=O)NC(=O)[C@H](CC(N)=O)NC(=O)[C@H](CO)NC(=O)[C@H](CO)NC(=O)[C@H](Cc1cnc[nH]1)NC(=O)[C@H](Cc1cnc[nH]1)NC(=O)[C@H](CC(C)C)NC(=O)[C@H](Cc1ccccc1)NC(=O)[C@H](CCC(=O)O)NC(=O)[C@H](C)NC(=O)[C@H](CC(C)C)NC(=O)[C@H](CCCNC(=N)N)NC(=O)[C@H](CCC(N)=O)NC(=O)[C@@H](NC(=O)[C@H](C)NC(=O)[C@@H]1CSSC[C@H](NC(=O)CC[C@H](NC(=O)CCCCCCCCCCCCCCCCCCC(=O)O)C(=O)O)C(=O)N[C@@H](CC(N)=O)C(=O)N[C@@H]([C@@H](C)O)C(=O)N[C@@H](C)C(=O)N[C@@H]([C@@H](C)O)C(=O)N1)[C@@H](C)O)C(=O)N[C@@H](CC(C)C)C(=O)N1CCC[C@H]1C(=O)N1CCC[C@H]1C(=O)N[C@H](C(=O)N[C@@H](CC(N)=O)C(=O)N[C@H](C(=O)NCC(=O)N[C@@H](CO)C(=O)N[C@@H](CC(N)=O)C(=O)N[C@H](C(=O)N[C@@H](Cc1ccc(O)cc1)C(N)=O)[C@@H](C)O)C(C)C)[C@@H](C)O [Example 28, N-alpha-[(S)-4-Carboxy-4-(19-carboxynonadecanoylamino)butyryl]-[des1,Glu14,His17]-pramlintide] ({C20 diacid-γGlu}-CNTATCATQRLAEFLHHSSNNFGPILPPTNVGSNTY-NH2; disulfide 1-6) | 0.259 | > 200 | > 200 | > 200 | > 200 | > 200 |  |  |  |  | 0.179 | > 200 | > 200 | > 200 | > 200 |  | > 200 |
